Activity calls are given as the source filed them. The rule behind the calls is not given here.
Key:
[1] = target: T1, Growth hormone secretagogue receptor type 1 (Rattus norvegicus, UniProt O08725); assay: Inverse agonist activity at rat ghrelin receptor expressed in HEK293 cells by NFAT-RE-luciferase reporter gene assay; assay type: cell-based
[2] = target: Neurotensin receptor type 2 (Homo sapiens) (UniProt O95665); assay: Inverse agonist activity at NTSR2 (unknown origin) expressed in HEK293 cells assessed as suppression of constitutive receptor activity by NFAT-RE-luciferase reporter gene assay; assay type: cell-based
Sequence of Neurotensin receptor type 2 (Homo sapiens) (O95665 whole entry): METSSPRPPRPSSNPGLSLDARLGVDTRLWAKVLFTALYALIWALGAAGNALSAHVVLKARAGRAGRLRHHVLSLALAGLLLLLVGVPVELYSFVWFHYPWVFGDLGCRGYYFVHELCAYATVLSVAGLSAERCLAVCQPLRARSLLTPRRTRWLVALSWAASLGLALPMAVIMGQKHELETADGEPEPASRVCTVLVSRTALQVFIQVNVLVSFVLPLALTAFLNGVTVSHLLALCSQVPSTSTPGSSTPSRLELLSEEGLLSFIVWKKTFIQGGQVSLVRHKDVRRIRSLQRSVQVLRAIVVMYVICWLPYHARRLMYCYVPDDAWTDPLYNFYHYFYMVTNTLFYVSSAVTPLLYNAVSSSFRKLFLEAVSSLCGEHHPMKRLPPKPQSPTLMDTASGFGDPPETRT

[3] = target: Growth hormone secretagogue receptor type 1 (Rattus norvegicus) (UniProt O08725); assay: Inverse agonist activity at rat ghrelin receptor expressed in HEK293 cells assessed as blockade of constitutive receptor activity b by NFAT-RE-luciferase reporter gene assay; assay type: cell-based
Sequence of Growth hormone secretagogue receptor type 1 (Rattus norvegicus) (O08725 whole entry): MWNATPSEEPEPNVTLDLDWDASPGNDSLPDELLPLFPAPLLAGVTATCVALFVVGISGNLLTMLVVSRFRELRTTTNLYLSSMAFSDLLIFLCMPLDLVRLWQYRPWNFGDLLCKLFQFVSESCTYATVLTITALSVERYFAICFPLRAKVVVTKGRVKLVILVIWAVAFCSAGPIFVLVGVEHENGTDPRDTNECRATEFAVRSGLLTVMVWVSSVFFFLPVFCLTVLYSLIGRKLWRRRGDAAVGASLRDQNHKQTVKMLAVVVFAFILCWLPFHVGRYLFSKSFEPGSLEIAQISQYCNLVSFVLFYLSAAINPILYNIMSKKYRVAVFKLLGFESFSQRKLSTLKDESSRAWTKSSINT

[4] = target: T2, Growth hormone secretagogue receptor type 1 (Homo sapiens, UniProt Q92847); assay: Binding affinity to ghrelin receptor (unknown origin)
T2 sequence (Q92847 whole entry): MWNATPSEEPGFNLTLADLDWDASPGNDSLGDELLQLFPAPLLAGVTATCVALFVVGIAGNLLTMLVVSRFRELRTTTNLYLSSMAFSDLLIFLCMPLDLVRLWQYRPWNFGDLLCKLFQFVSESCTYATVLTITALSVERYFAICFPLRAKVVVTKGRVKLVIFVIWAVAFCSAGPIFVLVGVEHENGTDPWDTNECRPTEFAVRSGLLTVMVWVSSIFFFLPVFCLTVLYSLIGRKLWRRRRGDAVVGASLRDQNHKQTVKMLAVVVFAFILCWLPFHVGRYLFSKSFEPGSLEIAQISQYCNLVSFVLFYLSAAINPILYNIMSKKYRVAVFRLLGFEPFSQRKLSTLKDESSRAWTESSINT

HEK293 [5] = assay: Toxicity against HEK293 cells assessed as cell viability up to 10 uM by alamar blue staining method; assay type: cell-based; settings: human
HEK293 [6] = assay: Toxicity against HEK293 cells assessed as cell viability at >10 uM by alamar blue staining method; assay type: cell-based; settings: human
[7] = Toxicity against HEK293 cells assessed as cell viability at 50 uM by alamar blue staining method; assay type: cell-based; settings: human, read-out: Activity
[8] = Toxicity against HEK293 cells assessed as cell viability at 2 uM by alamar blue staining method; assay type: cell-based; settings: human, read-out: Activity
Mus musculus [9] = assay: Inhibition of ghrelin-induced food intake in mouse model of high fat diet-induced obesity at 30 mg/kg, sc dosed twice daily for 14 days; assay type: functional, organism-based
[10] = target: Cholecystokinin receptor type A (Homo sapiens) (UniProt P32238); assay: Inhibition of radioligand binding at human CCKA at 10 uM
Sequence of Cholecystokinin receptor type A (Homo sapiens) (P32238 whole entry): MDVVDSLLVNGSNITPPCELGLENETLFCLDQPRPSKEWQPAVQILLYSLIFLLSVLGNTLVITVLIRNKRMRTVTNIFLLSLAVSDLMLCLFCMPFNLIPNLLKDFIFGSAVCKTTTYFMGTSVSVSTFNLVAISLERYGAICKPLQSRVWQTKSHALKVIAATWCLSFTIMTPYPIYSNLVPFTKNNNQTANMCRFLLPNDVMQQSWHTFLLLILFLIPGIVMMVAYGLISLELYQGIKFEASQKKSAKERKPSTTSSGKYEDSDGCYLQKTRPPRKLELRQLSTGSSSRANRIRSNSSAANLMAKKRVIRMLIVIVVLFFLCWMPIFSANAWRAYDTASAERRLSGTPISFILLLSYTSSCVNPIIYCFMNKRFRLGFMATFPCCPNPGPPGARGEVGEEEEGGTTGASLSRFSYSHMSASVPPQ

Rattus norvegicus [11] = assay: Inhibition of ghrelin-induced gastric emptying in rat assessed as suppression of gastric content at 10 mg/kg, sc pre-treated 15 mins before ghrelin challenge; assay type: functional, organism-based; settings: Stomach
[12] = target: Motilin receptor (Homo sapiens) (UniProt O43193); assay: Inhibition of radioligand binding at human MTLR1 at 10 uM
Rattus norvegicus [13] = assay: Inhibition of ghrelin-induced food intake in rat at 15 to 30 mg/kg, ip after 30 mins; assay type: functional, organism-based
Mus musculus [14] = assay: Toxicity in mouse model of high fat diet-induced obesity assessed as induction of behavioral effect at 10 and 30 mg/kg, sc; assay type: organism-based; settings: in vivo
[15] = target: D(2) dopamine receptor (Homo sapiens) (UniProt P14416); assay: Inhibition of radioligand binding at dopamine D2 receptor (unknown origin) at 10 uM
Sequence of D(2) dopamine receptor (Homo sapiens) (P14416 whole entry): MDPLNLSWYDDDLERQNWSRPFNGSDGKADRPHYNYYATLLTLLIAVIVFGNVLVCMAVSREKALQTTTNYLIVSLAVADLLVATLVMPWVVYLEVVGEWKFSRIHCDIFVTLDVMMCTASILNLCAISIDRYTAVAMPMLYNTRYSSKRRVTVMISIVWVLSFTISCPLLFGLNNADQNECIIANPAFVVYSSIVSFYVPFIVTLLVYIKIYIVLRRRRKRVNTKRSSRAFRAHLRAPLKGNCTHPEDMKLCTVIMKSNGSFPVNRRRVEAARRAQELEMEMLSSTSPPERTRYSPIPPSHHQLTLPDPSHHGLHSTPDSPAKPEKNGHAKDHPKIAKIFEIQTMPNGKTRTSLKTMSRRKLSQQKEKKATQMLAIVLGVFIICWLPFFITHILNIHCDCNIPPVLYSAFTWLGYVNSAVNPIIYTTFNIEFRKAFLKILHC

[16] = target: Neuropeptide Y receptor type 1 (Homo sapiens) (UniProt P25929); assay: Inhibition of radioligand binding at human neuropeptide Y1 receptor at 10 uM
Sequence of Neuropeptide Y receptor type 1 (Homo sapiens) (P25929 whole entry): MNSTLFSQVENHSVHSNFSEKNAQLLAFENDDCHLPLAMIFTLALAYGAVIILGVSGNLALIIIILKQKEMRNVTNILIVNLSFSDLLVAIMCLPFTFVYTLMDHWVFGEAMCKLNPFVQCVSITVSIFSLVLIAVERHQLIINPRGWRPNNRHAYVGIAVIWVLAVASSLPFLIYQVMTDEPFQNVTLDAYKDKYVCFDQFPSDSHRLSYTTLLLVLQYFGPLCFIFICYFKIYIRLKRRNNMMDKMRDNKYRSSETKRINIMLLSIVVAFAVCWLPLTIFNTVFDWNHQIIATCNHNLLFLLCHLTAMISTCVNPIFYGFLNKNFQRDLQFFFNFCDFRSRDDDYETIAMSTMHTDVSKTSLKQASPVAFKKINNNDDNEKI

[17] = target: Adrenergic receptor alpha-2 (Homo sapiens) (UniProt P08913+P18825+P18089); assay: Inhibition of radioligand binding at alpha-2 adrenergic receptor (unknown origin) at 10 uM
[18] = Oral bioavailability in mouse at 10 mg/kg, administered as single dose; assay type: ADME, organism-based; settings: in vivo
[19] = Bioavailability in mouse at 10 mg/kg, sc administered as single dose; assay type: ADME, organism-based; settings: in vivo
Rattus norvegicus [20] = assay: Inhibition of ghrelin-induced gastric emptying in rat assessed as suppression of gastric motility at 10 mg/kg, sc pre-treated 15 mins before ghrelin challenge; assay type: functional, organism-based; settings: Stomach
hERG (KCNH2) = hERG (KCNH2) (Homo sapiens, UniProt Q12809); assay: Inhibition of human ERG at 10 uM
Rattus norvegicus [21] = assay: Inhibition of ghrelin-induced growth hormone release in rat at 3 mg/kg, iv pre-treated 5 mins before ghrelin challenge; assay type: functional, organism-based
Mus musculus [22] = assay: Toxicity in mouse model of high fat diet-induced obesity assessed as induction of sedation at 10 and 30 mg/kg, sc; assay type: organism-based; settings: in vivo
[23] = target: T2, Growth hormone secretagogue receptor type 1; assay: Antagonist activity against ghrelin receptor (unknown origin) expressed in CHO cells assessed as inhibition of ghrelin-induced calcium response; assay type: functional, cell-based
[24] = Bioavailability in mouse at 10 mg/kg, ip administered as single dose; assay type: ADME, organism-based; settings: in vivo
Liver microsome = assay: Drug metabolism in human liver microsomes; assay type: ADME
[25] = target: Melanocortin receptor 4 (Homo sapiens) (UniProt P32245); assay: Inhibition of radioligand binding at human melanocortin MC4 receptor at 10 uM
Sequence of Melanocortin receptor 4 (Homo sapiens) (P32245 whole entry): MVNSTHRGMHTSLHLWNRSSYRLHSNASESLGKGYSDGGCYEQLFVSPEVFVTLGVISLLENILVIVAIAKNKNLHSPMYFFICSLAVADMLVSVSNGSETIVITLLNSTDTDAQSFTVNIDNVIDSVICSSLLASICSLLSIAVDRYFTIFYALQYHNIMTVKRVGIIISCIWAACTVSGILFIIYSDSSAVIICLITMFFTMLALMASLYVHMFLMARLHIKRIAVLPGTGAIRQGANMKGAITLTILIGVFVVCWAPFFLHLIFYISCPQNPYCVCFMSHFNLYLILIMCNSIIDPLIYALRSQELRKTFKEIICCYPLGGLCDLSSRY

[26] = target: Sodium-dependent noradrenaline transporter (Homo sapiens) (UniProt P23975); assay: Inhibition of radioligand binding at human NET at 10 uM
Sequence of Sodium-dependent noradrenaline transporter (Homo sapiens) (P23975 whole entry): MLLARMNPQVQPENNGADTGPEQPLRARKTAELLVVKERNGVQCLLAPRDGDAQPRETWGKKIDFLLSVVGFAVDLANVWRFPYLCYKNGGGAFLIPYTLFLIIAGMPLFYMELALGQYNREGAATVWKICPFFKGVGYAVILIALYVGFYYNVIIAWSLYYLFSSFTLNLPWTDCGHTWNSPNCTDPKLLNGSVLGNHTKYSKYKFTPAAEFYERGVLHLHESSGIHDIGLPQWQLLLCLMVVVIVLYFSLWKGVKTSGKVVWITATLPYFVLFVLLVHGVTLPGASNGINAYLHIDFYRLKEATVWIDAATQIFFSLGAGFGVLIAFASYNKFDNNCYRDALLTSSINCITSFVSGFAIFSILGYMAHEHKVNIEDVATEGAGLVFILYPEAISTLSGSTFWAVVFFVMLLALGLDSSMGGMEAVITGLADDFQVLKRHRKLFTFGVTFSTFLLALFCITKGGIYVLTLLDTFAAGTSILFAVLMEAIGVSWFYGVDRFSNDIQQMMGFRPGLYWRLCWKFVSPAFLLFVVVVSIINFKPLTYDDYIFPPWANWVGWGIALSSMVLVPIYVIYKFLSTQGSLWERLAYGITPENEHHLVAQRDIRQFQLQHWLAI

[27] = Inhibition of ghrelin-induced growth hormone release in rat primary pituitary cells; assay type: functional, cell-based; settings: Pituitary gland cell
CYP3A4 = CYP3A4 (Homo sapiens, UniProt P08684); assay: Inhibition of CYP3A4 (unknown origin) at 10 uM; assay type: ADME
Sequence of CYP3A4 (P08684 whole entry): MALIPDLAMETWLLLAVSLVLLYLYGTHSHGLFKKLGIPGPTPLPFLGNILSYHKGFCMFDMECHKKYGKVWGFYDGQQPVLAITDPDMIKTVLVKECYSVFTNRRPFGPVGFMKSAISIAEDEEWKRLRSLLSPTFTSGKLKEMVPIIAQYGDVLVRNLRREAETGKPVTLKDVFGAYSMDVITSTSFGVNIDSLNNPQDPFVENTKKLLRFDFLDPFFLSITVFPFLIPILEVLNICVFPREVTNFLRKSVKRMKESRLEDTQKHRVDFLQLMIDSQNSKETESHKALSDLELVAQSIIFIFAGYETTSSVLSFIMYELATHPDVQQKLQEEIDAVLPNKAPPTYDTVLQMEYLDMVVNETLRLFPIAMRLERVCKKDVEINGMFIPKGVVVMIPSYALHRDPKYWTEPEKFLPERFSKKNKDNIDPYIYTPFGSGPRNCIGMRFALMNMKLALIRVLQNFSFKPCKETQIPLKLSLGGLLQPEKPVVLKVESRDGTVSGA

[28] = Total clearance in mouse at 10 mg/kg administered as single dose; assay type: ADME, organism-based; settings: in vivo
Salmonella typhimurium = assay: Mutagenicity in Salmonella typhimurium by Ames test; assay type: toxicity, organism-based; settings: salmonella enterica subsp. enterica serovar typhimurium
[29] = target: D(1A) dopamine receptor (Homo sapiens) (UniProt P21728); assay: Inhibition of radioligand binding at dopamine D1 receptor (unknown origin) at 10 uM
Rattus norvegicus [30] = assay: Toxicity in rat assessed as induction of behavioral effect at 10 to 30 mg/kg, ip; assay type: organism-based; settings: in vivo
[31] = target: 5-hydroxytryptamine receptor 2C (Homo sapiens) (UniProt P28335); assay: Inhibition of radioligand binding at human 5HT2C receptor at 10 uM
Sequence of 5-hydroxytryptamine receptor 2C (Homo sapiens) (P28335 whole entry): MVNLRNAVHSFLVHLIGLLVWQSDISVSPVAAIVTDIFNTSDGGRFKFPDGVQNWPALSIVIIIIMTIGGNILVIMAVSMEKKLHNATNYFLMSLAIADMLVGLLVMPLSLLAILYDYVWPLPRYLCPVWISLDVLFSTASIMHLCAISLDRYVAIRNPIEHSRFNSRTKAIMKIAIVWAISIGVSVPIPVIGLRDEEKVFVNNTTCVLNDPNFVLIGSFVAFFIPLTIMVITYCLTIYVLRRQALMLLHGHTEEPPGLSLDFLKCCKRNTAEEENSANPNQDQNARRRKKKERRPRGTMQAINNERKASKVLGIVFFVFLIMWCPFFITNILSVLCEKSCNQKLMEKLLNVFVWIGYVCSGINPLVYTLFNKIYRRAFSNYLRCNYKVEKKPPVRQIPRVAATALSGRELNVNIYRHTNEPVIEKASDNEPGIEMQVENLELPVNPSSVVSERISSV

[32] = target: Cannabinoid receptor 1 (Homo sapiens) (UniProt P21554); assay: Inhibition of radioligand binding at human CB1 receptor at 10 uM
Sequence of Cannabinoid receptor 1 (Homo sapiens) (P21554 whole entry): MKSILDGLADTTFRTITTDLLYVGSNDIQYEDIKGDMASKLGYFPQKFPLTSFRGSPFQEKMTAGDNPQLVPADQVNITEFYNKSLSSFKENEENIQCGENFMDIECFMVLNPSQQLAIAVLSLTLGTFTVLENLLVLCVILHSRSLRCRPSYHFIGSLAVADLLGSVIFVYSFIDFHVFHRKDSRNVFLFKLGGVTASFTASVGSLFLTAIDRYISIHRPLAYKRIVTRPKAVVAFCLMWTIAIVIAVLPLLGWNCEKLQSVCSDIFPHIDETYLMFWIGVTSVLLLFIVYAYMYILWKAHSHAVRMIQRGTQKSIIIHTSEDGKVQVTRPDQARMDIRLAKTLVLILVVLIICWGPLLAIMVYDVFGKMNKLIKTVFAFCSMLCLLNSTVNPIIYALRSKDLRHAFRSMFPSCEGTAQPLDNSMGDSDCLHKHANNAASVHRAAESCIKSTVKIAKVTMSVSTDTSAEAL

Mus musculus [33] = assay: Inhibition of ghrelin-induced food intake in mouse model of high fat diet-induced obesity at 10 mg/kg, sc dosed twice daily for 14 days; assay type: functional, organism-based
[34] = target: Sodium-dependent serotonin transporter (Homo sapiens) (UniProt P31645); assay: Inhibition of radioligand binding at human SERT at 10 uM
Rattus norvegicus [35] = assay: Toxicity in rat assessed as induction of sedation at 10 to 30 mg/kg, ip; assay type: organism-based; settings: in vivo
[36] = Ratio of drug level in brain to plasma in mouse at 10 mg/kg, ip administered as single dose after 1 hr; assay type: ADME, organism-based; settings: brain and plasma, read-out: BPR
[37] = Protein binding in human plasma; assay type: ADME, cell-free; settings: read-out: PPB
[38] = target: T1, Growth hormone secretagogue receptor type 1; assay: Inverse agonist activity at rat ghrelin receptor expressed in HEK293 cells by inositol phosphate turnover assay; assay type: functional, cell-based
[39] = target: T1, Growth hormone secretagogue receptor type 1; assay: Inverse agonist activity at rat ghrelin receptor by inositol phosphate turnover assay; assay type: functional

T1 sequence (O08725 whole entry): as the sequence (O08725 whole entry) above

O=C(NC[C@H]1COc2ccccc2O1)c1cc(N2C[C@H]3CC[C@@H](C2)O3)cnc1NCc1ccc2c(c1)OCO2
IC50 [1]: 560 nM | Activity [2]: inactive | Efficacy [3]: > 95% | IC50 [4]: 5.4 nM

CC(C)N1[C@@H]2CC[C@H]1C=C(c1cnc(NCc3ccc4c(c3)OCC4)c(C(=O)NC[C@H]3COc4ccccc4O3)c1)C2 (mixture of isomers)
Activity (HEK293 [5]): Toxic | IC50 [1]: 4.1 nM | Activity [2]: inactive | Activity (HEK293 [6]): Toxic | Efficacy [3]: > 95% | IC50 [4]: 0.23 nM

CCCn1cc(-c2cnc(NCc3ccc4c(c3)OCO4)c(C(=O)NCC3COc4ccccc4O3)c2)cn1 (stereo not drawn)
viability at 50 µM [7]: 69% | IC50 [1]: 170 nM | Activity [2]: inactive | viability at 2 µM [8]: 85% | Efficacy [3]: > 95% | IC50 [4]: 36 nM

CCn1cc(-c2cnc(NCc3ccc4c(c3)OCO4)c(C(=O)NC[C@H]3COc4ccccc4O3)c2)cn1
IC50 [1]: 110 nM | Activity [2]: inactive | Efficacy [3]: > 95% | IC50 [4]: 24 nM

CCCn1cc(-c2cnc(NCc3ccc4c(c3)OCC4)c(C(=O)NCC3COc4ccccc4O3)c2)cn1 (racemic)
IC50 [1]: 140 nM | Activity [2]: inactive | Efficacy [3]: > 95% | IC50 [4]: 11 nM

CCCn1cc(-c2cnc(NCc3ccc4sccc4c3)c(C(=O)NCC3COc4ccccc4O3)c2)cn1 (racemic)
viability at 50 µM [7]: 92% | IC50 [1]: 400 nM | Activity [2]: inactive | viability at 2 µM [8]: 101% | Efficacy [3]: > 95% | IC50 [4]: 84 nM

CC(=O)N1CC=C(c2cnc(NCc3ccc4c(c3)OCO4)c(C(=O)NC[C@H]3COc4ccccc4O3)c2)CC1
IC50 [1]: 2500 nM | Activity [2]: inactive | Efficacy [3]: > 95% | IC50 [4]: 42 nM

O=C(NC[C@H]1COc2ccccc2O1)c1cc(N2CCOCC2)cnc1NCc1ccc2c(c1)OCO2
IC50 [1]: 2000 nM | Activity [2]: inactive | Efficacy [3]: > 95% | IC50 [4]: 47 nM

C[C@@H]1CN(c2cnc(NCc3ccc4c(c3)OCC4)c(C(=O)NC[C@H]3COc4ccccc4O3)c2)C[C@H](C)O1
IC50 [1]: 350 nM | Activity [2]: inactive | Efficacy [3]: > 95% | IC50 [4]: 7.2 nM

O=C(NCC1COc2ccccc2O1)c1cc(-c2ccnc(Cl)c2)cnc1NCc1ccc2c(c1)OCC2 (racemic)
IC50 [1]: 390 nM | Activity [2]: inactive | Efficacy [3]: > 95% | IC50 [4]: 6.9 nM

CCCn1cc(-c2cnc(NCc3ccc4ncsc4c3)c(C(=O)NCC3COc4ccccc4O3)c2)cn1 (stereo not drawn)
IC50 [1]: 900 nM | Activity [2]: inactive | Efficacy [3]: > 95% | IC50 [4]: 260 nM

CCCn1cc(-c2cnc(NCc3ccc4occc4c3)c(C(=O)NCC3COc4ccccc4O3)c2)cn1 (stereo not drawn)
IC50 [1]: 720 nM | Activity [2]: inactive | Efficacy [3]: > 95% | IC50 [4]: 150 nM

CC(=O)N1[C@@H]2CC[C@H]1C=C(c1cnc(NCc3ccc4c(c3)OCC4)c(C(=O)NC[C@H]3COc4ccccc4O3)c1)C2 (mixture of isomers)
inhibition (Mus musculus [9]): Active | inhibition [10]: 0% | inhibition (Rattus norvegicus [11]): Active | inhibition [12]: 18.8% | inhibition (Rattus norvegicus [13]): Active | Activity (Mus musculus [14]): Non-toxic | IC50 [1]: 47 nM | Activity [2]: inactive | inhibition [15]: 7.1% | inhibition [16]: 1% | inhibition [17]: 12.6% | bioavailability [18]: 0.64% | bioavailability [19]: 99.1% | inhibition (Rattus norvegicus [20]): Active | inhibition at 10 µM (hERG (KCNH2)): 36% | inhibition (Rattus norvegicus [21]): Active | Activity (Mus musculus [22]): Non-toxic | IC50 [23]: 31 nM | bioavailability [24]: 83.2% | Drug metabolism (Liver microsome): 302 pmol/min/mg | inhibition [25]: 2.4% | inhibition [26]: 0% | IC50 [27]: 13 nM | inhibition at 10 µM (CYP3A4): 26% | clearance [28]: 68.2 mL/min/kg | Activity (Salmonella typhimurium): Non-toxic | inhibition [29]: 5.6% | Activity (Rattus norvegicus [30]): Non-toxic | inhibition [31]: 7.1% | inhibition [32]: 0% | inhibition (Mus musculus [33]): Active | inhibition [34]: 0% | Activity (Rattus norvegicus [35]): Non-toxic | Efficacy [3]: > 95% | Kp at 1 h [36]: 0.005 | IC50 [4]: 0.96 nM | fraction unbound [37]: 0.01

CCn1cc(-c2cnc(NCc3ccc4c(c3)OCO4)c(C(=O)NC[C@@H]3COc4ccccc4O3)c2)cn1
IC50 [1]: 5500 nM | Activity [2]: inactive | Efficacy [3]: > 95% | IC50 [4]: 180 nM

H-RPKPFQWFWLL-NH2
IC50 [1]: 250 nM | IC50 [38]: 146 nM | IC50 [39]: 5.2 nM

From ChEMBL document CHEMBL3585260, “2-Aminoalkyl nicotinamide derivatives as pure inverse agonists of the ghrelin receptor” (Bioorg Med Chem Lett, 2015)
